# Tested on: human oral keratinocytes (HOK-18A)
# Assay: IL-8 levels in supernatant of keratinocytes exposed to substrate-treated biofilms
# Assay type: cell-based
# Conditions: biofilms treated with substrate 1 M; n = 3
# Procedure: Cultures of immortalized human oral keratinocytes (HOK-18A) are grown. […] The IL-8 levels in the cellular supernatant are determined as well. RNA is converted to cDNA and relative expression of inflammatory mediator genes is determined as described above with respect to the cellular housekeeping gene β-actin.
smiles,measurement,value
"OC[C@H]1O[C@@H](O[C@H]2[C@H](O)[C@@H](O)[C@@H](O)O[C@@H]2CO)[C@H](O)[C@@H](O)[C@H]1O [D-lactose, α-D-lactose]",Mean ± SD IL-8 levels in HOK-18A supernatant,< LOD^∗

# — patent US20230346670A1, “Prebiotic Oral Care Compositions and Methods” (Colgate-Palmolive Company, priority 2020, published 2023)
